Reference: patent publication US5076973A, “Synthesis of dolastatin 3” (Arizona Board of Regents, priority 1988, dated 1991)

Assay: Stability in solution and in storage
Format: physicochemical

CC(C)C[C@@H]1NC(=O)[C@@H]2CCCN2C(=O)[C@H](C(C)C)NC(=O)c2csc(n2)CNC(=O)c2csc(n2)[C@H](CCC(N)=O)NC1=O [dolastatin 3, Cyclo-[L-Val-L-Pro-L-Leu-L-(gln)Thz-(gly)Thz]]
Stability / decomposition in solution (in solution, especially in chloroform): tendency to undergo decomposition in solution | Stability in storage (storage of isolated natural sample): decomposed in storage
